{"source": "patent US5177082A", "about": "“Huperzines and analogs” (priority 1990, dated 1993)", "key": {"[1]": {"settings": "iv 375 μCi/kg, rat blood"}, "[2]": {"test": "Tissue distribution of 3H-Huperzine A radioactivity, iv", "assay_type": "in vivo, rat", "method": "After giving 250 μCi/kg by iv injections of ^3 H-Huperzine A to the rats, they were sacrificed at different times by bloodletting and the radioactivity contents of the organs were measured."}, "[3]": {"test": "Plasma protein binding by equilibrium dialysis", "assay_type": "in vitro ADME", "settings": "mouse, plasma of normal mice", "description": "Using equilibrium dialysis, it could be shown that the protein binding of ^3 H-Huperzine A in the plasma of normal mice was 17.2±4.1%."}, "in vivo": {"test": "in vivo", "settings": "rat, iv; for k el / Vd / half-life: rat blood"}, "[4]": {"test": "Excretion of 3H-Huperzine A after a single dose", "assay_type": "in vivo"}, "true cholinesterase": {"molecular_target": "true cholinesterase (Rattus norvegicus, UniProt P37136)", "sequence (P37136-2 with tags, fused parts or gaps limits assumed)": "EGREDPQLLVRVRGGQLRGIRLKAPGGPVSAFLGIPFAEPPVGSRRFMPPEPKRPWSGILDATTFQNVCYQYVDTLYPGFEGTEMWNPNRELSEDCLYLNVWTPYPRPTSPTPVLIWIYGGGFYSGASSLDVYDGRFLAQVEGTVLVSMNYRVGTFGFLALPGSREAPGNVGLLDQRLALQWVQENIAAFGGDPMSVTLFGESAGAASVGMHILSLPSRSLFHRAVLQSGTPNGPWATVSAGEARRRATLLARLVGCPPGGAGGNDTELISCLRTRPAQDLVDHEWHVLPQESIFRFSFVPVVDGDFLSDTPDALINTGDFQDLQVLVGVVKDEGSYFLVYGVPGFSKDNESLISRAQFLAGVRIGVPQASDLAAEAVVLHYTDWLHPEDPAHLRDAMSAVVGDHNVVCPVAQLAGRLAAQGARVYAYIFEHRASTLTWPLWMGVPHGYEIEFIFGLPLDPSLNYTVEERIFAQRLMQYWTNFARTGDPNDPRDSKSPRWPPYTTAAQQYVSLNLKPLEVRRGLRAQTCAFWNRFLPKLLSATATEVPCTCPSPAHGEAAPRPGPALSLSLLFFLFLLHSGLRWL"}, "[5]": {"settings": "seven days after a single dose, 10080 min"}}, "note": "Like-named read-outs stand apart in the source and are kept apart here."}
{"smiles": "C/C=C1\\[C@H]2C=C(C)C[C@]1(N)c1ccc(=O)[nH]c1C2", "note": "[3H-Huperzine A]", "values": [{"measurement": "K12", "setting": "[1]", "result": 0.0778}, {"measurement": "K21", "setting": "[1]", "result": 0.0366}, {"measurement": "phase rate constant α", "setting": "[1]", "result": 0.129, "unit": "min⁻¹"}, {"measurement": "radioactivity contents of the organs", "setting": "[2]; 15 minutes after 250 μCi/kg iv", "result": "the kidney and liver had the highest contents, the lungs, spleen and heart had less and the fat and brain had the least"}, {"measurement": "radioactivity in every organ examined", "setting": "[2]; after twenty-four hours", "result": "only a minute quantity of radioactivity"}, {"measurement": "brain distribution / blood-brain barrier", "setting": "[2]; rat, in vivo", "result": "can pass the blood-brain barrier"}, {"measurement": "radioactivity contents of the organs", "setting": "[2]; twelve hours after 250 μCi/kg iv", "result": "the radioactivity in each tissue was close to zero"}, {"measurement": "radioactivity contents of the organs", "setting": "[2]; two hours after 250 μCi/kg iv", "result": "the radioactivity in the other tissues was markedly lower while that in the brain rose slightly"}, {"measurement": "fraction unbound", "setting": "[3]", "result": 0.828}, {"measurement": "clearance", "setting": "in vivo", "result": 21.2, "unit": "mL/min/kg"}, {"measurement": "k el", "setting": "in vivo; K10, iv 375 μCi/kg", "result": 0.00034, "unit": "s⁻¹"}, {"measurement": "Vd", "setting": "in vivo; Vc, iv 375 μCi/kg", "result": 1.04, "unit": "L/kg"}, {"measurement": "Vd", "setting": "in vivo; Vd, iv 375 μCi/kg", "result": 3.66, "unit": "L/kg"}, {"measurement": "k el", "setting": "in vivo; phase rate constant β, iv 375 μCi/kg", "result": "9.67e-05", "unit": "s⁻¹"}, {"measurement": "half-life", "setting": "in vivo; t1/2α, iv 375 μCi/kg", "result": 0.09, "unit": "h"}, {"measurement": "half-life", "setting": "in vivo; t1/2β, iv 375 μCi/kg", "result": 1.99, "unit": "h"}, {"measurement": "time of peak radioactivity in blood", "setting": "ig 375 μCi/kg, fasted 14 hours", "result": "45 to 60", "unit": "min"}, {"measurement": "radioactivity in the blood", "setting": "seven hours after ig", "result": "still relatively high"}, {"measurement": "radioactivity in the blood", "setting": "twenty minutes after ig", "result": "had risen noticeably"}, {"measurement": "eliminated in the urine", "setting": "[4]; [5]", "result": 86.1, "unit": "%"}, {"measurement": "eliminated through feces", "setting": "[4]; [5]", "result": 5.5, "unit": "%"}, {"measurement": "excreted drug appearing within twenty-four hours (urine)", "setting": "[4]; within twenty-four hours, 1440 min", "result": 84.9, "unit": "%"}]}
{"smiles": "C[N+](C)(C)CCO.[Cl-]", "note": "[choline chloride]", "values": [{"measurement": "inhibition vs time response", "setting": "true cholinesterase", "result": "The same response was noted"}]}
